Data on 1 compound can be found in patent US20070054887A1, “Methods for treating bladder dysfunction” (BioXell S.p.A, priority 2003, published 2007).

Data set [1] in a line: maximum tolerated dose (MTD) in rats. In kind it is in vivo. Conditions: rat, in vivo, read-out: MTD. The source says: The maximum tolerated dose (MTD) in rats is also listed for each compound.
A further data set relates to hBC. Put plainly: DNA fragmentation / apoptotic index in hBC by in situ end labelling (ISEL). Conditions: Compound A 10 nM, alone and in the presence of KGF (10 ng/ml) or testosterone (10 nM); FIG. 7.
Another data set has as its system desmin. Put plainly: desmin gene and protein expression in serum-starved hBC. It is filed as cell-based, human. Conditions: 10 nM. On the procedure:
To detect desmin both at gene or protein level hBC cells were seeded in their growth medium onto 10 mm diameter culture dishes or onto sterile glass slides (about 10^4 cells/ml), for mRNA or immunocytochemical analysis, respectively. hBC cells at about 30% confluency, after overnight starvation in serum-free medium were incubated in phenol red- and serum-free medium containing 0.1% BSA with or without Compound A (10^−8 M) for 2, 4, 8 and 12 days, and the medium was changed every 2 days. Cells were harvested for mRNA or protein analysis by Taqman or Western blot analysis, respectively, and the slides were processed for specific protein immunocytochemical detection Quantitative analysis using real-time RT-PCR of desmin mRNA expression in serum-starved hBC treated with Compound A (10 nM, grey columns) was examined at different time points (2-12 days). Results are derived from five different experiments from three distinct hBC preparations and are expressed as fold increase compared to time zero. *P≦0.01 or °P=0.04 vs. control, open columns and are shown in FIG. 8.
Western blot detection of desmin in hBC was conducted as follows: thirty μg of proteins were separated by 10% SDS-PAGE, transferred onto nitrocellulose membrane, and probed with anti-desmin antibody (1:1000). A band of about 58 kDa was detected in each sample of hBC. […]

The next data set concerns BOO rats. Put plainly: bladder outlet obstruction (BOO) rat model: cystometry and bladder weight. It is filed as in vivo, Sprague-Dawley rats. Conditions: 150 ug/kg/daily over 2 weeks. On the procedure: Female Sprague-Dawley rats, weighing 200-250 g
Group A: BOO rats, treated with the vitamin D analogue over 2 weeks, beginning at day 1 after creation of the obstruction (n=12)
Group B: BOO rats, treated with vehicle over 2 weeks, beginning at day 1 after creation of the obstruction (n=12)
Group C: Sham operated rats, treated with the vitamin D analogue over 2 weeks, beginning at day 1 after surgery (n=12)
a) Cystometry (˜18 hours after last administration of the drug/vehicle, 12 hours after removal of the obstructing ligature) under conscious conditions.
The bladder and urethrovesical junction were exposed through a lower abdominal midline incision. A 0.9 mm metal rod was placed alongside the proximal urethra and a 3-0 silk ligature was tied tightly around the urethra and the rod, which was consequently removed. Sham surgery was performed accordingly, without placing the ligature. After 13 days the ligature was removed and a catheter was inserted into the bladder dome and tunneled subcutaneously.
The following morning after insertion of the catheter, the cystometric investigation was performed without any anesthesia or restraint in a metabolic cage. The amount of voided urine was measured by means of a fluid collector, connected to a force displacement transducer. The bladder was continuously filled with saline at room temperature. The catheter was also connected to a pressure transducer. After a stabilization period of 30-60 minutes, when reproducible voiding patterns are achieved, the following parameters were recorded over a period of 30 min: Basal bladder pressure, micturition pressure, threshold pressure, micturition interval and volume, and non-voiding contractions. The amount of residual urine was investigated manually 3 times, at the end of the cystometry. Bladder capacity was calculated based on the measured values.
The validated bladder outlet obstruction rat model described above was used to test the ability of vitamin D3 analogues to control and treat bladder dysfunction. The objective was to evaluate whether a vitamin D3 analogue (1-alpha-fluoro-25-hydroxy-16,23e-diene-26,27-bishomo-20-epi-cholecalciferol-Compound “A”) at the dose of 150 ug/kg/daily can prevent bladder hypertrophy and bladder dysfunction such as bladder overactivity.
In this model a ligature was surgically placed around the outlet of the catheterized bladder, so that when the catheter was removed, the bladder experienced increased urethral resistance. The rats underwent continuous cystometry to evaluate bladder function. In addition the contractile properties of isolated bladder preparation in response to nerve stimulation and exogenous stimuli in vitro were investigated under electrical field stimulation (EFS).

For a further data set, the system named is bladder strips. Put plainly: contractile properties of isolated bladder strips from BOO model rats. Further details: species or system Sprague-Dawley rats. Conditions: in vitro test. As for the experimental part: After completion of the cystometries, the rats were sacrified by carbon monoxide asphyxiation followed by exsanguination. The abdomen was accessed through a lower midline incision whereafter the symphysis was opened. The bladder was carefully dissected free, and immediately placed in chilled Krebs solution, and strip preparations were dissected.
The bladder and urethra were separated at the level of the bladder neck, and semicircular strips were prepared from the middle third of the detrusor (1×2×5 mm). All preparations were used immediately after removal.
The strips were transferred to 5 ml tissue baths containing Krebs solution. The Krebs solution was maintained at 37° C. and bubbled continuously with a mixture of 95% O2 and 5% CO2, resulting in a pH of 7.4. The strips were suspended between two L-shaped hooks by means of silk ligatures. One hook was connected to a movable unit allowing adjustment of passive tension, and the other to a Grass FT03C (Grass Instruments Co, MA, USA) force transducer. Isometric tension was recorded using a Grass polygraph (7D). After mounting, the strips were stretched to a passive tension of 4 mN (the same tension for all preparations) and allowed to equilibrate for 45-60 min before further experiments were performed.
Electrical field stimulation (EFS) was accomplished by means of two platinum electrodes placed on either side of the preparations, and was performed using a Grass S48 or S88 stimulator, delivering single square wave pulses at selected frequencies. The train duration was 5 s, the pulse duration 0.8 ms, and the stimulation interval 2 min. The polarity of the electrodes was shifted after each pulse by means of a polarity changing unit.
Each experiment was started by exposing the preparations to a high K^+ (124 mM) Krebs solution until two reproducible contractions are obtained. Then the following experiments were carried out:
a) Electrical stimulation of nerves was performed and frequency-response relations obtained, in the presence and absence of atropine.
b) Concentration-response curves were constructed for carbachol and ATP […]

Data set [2] relates to rats with CYP-induced cystitis. Put plainly: cyclophosphamide (CYP) induced chronic cystitis in rats: conscious cystometry. In kind it is in vivo, Wistar rats. Conditions: 30 and 75 ug/kg, control v Comp A.

`C=C1/C(=C\C=C2/CCC[C@]3(C)C([C@@H](C)C/C=C/C(O)(CC)CC)=CC[C@@H]23)C[C@@H](O)C[C@@H]1F` [Compound A, 1-alpha-fluoro-25-hydroxy-16,23E-diene-26,27-bishomo-20-epi-cholecalciferol]: the MTD in data set [1] turned out to be 0.1 mg/kg. In the data set on hBC, the apoptotic index result was “significantly increases”. In addition, the “desmin protein expression (Western blot)” value in the data set on desmin (at any time point tested (2-12 days), FIG. 9) is reported as “decreased”. The “serum starvation-induced progressive increase in desmin expression” value in the data set on desmin (mRNA and protein, FIGS. 8-11) was “almost completely counteracted”. Moreover, in the data set with BOO rats (versus vehicle), the “spontaneous non-voiding contraction amplitude” value is “significant differences versus vehicle” and the “spontaneous non-voiding contraction frequency” value was “significant differences versus vehicle”. Further, the micturition pressure result in the data set with BOO rats (versus vehicle, FIG. 19) is on record as “significant differences versus vehicle”. Moreover, the bladder weight result with BOO rats (FIG. 16) was “slight decrease”. In addition, the residual urine entry in the data set with BOO rats (FIG. 20) is listed as “absent”. Also, the “response to carbachol of bladder strips” value with bladder strips was “beneficial effect”. Also, the “response to EFS of bladder strips” value with bladder strips (electrical field stimulation, FIG. 21) is given as “beneficial effect”. Also, in the data set with bladder strips (strips from treated rats, high K+ (124 mM)), the “K response of bladder strips” value was “beneficial effect”. In data set [2] (FIG. 23), the bladder capacity result is “increase”. The non-voiding bladder contractions entry in data set [2] (FIG. 24) is recorded as “decrease”.

The term MTD denotes the largest dose that counted as tolerated.
